Active and inactive are the calls of the source. No cut-off for these calls is given here.
Experiments:
[1] = target: T1, Cytosolic phospholipase A2 (Homo sapiens) (UniProt P47712); experiment: Inhibitory activity against human Group IVA Phospholipase A2 (GIVA PLA2), at 0.02 mole fraction
T1 sequence (whole entry): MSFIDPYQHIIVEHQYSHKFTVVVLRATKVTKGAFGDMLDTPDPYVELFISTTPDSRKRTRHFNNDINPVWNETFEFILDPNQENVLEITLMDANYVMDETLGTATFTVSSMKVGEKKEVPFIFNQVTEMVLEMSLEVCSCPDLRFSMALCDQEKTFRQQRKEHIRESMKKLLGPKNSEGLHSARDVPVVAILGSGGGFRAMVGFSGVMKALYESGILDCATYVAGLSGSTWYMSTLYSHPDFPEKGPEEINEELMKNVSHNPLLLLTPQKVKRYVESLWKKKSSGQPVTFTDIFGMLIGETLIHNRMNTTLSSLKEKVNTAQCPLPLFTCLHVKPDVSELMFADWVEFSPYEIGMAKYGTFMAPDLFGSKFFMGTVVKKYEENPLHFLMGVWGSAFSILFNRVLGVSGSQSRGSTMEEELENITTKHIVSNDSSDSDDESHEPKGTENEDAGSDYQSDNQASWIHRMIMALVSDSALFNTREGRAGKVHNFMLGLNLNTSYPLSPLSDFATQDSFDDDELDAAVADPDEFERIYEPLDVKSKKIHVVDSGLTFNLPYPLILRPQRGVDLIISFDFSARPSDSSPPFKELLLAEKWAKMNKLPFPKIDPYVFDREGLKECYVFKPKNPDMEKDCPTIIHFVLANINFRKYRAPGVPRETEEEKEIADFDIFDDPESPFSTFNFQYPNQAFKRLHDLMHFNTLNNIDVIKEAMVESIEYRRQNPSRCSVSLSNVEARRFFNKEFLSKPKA

[2] = target: T1, Cytosolic phospholipase A2 (Homo sapiens); experiment: Inhibitory activity against human Group IVA Phospholipase A2 (GIVA PLA2); Inactive
[3] = target: T1, Cytosolic phospholipase A2 (Homo sapiens); experiment: Inhibitory activity against human Group IVA Phospholipase A2 (GIVA PLA2)

IA [2] | XI50 [3] | SMILES | further results
 |  | CCCCCCCCCCCCCCC(=O)C(=O)NCCCCCC | inhibition [1]: 22%
inactive |  | CCCCCCCC/C=C\CCCCCCCCNC(=O)C(=O)CCCCCCCCCCCCCC | 
 | 0.009 | CCCCCCCCCCC(=O)C(=O)N[C@@H](CCCC)CCC(=O)O | 
inactive |  | CCCCCCC(=O)C(=O)NCCCC(=O)O | 
 | 0.017 | CCCCCCCCCCCCCCC(=O)C(=O)NCCCC(=O)O | 
 | 0.068 | CCCCCCCCCCC(=O)C(=O)N[C@H](CCCC)CCC(=O)O | 
inactive |  | CCCCCCCCCCCCCC(=O)C(N)=O | 
inactive |  | CCCCCCCC/C=C\CCCCCCCCNC(=O)C(=O)CCCCCC | 

From ChEMBL document CHEMBL1135491, “Novel 2-oxoamide inhibitors of human group IVA phospholipase A(2)” (J Med Chem, 2002)
